One experiment concerns KAI1 promoter. Nature of the experiment: KAI1 promoter luciferase reporter assay in transfected Caco2 cells. In kind it is cell-based, human. Particulars: Homo sapiens, Caco-2, 16 h, read-out: Relative KAI promoter activity. Background: In a reporter assay the amount or activity of a reporter protein is the signal.
Experiment [1] has as its system invasion of colorectal cancer cells. The experiment can be described thus: In vivo relative invation (invasion; EV and KITENIN controls, no method described). The note with it: relative to EV (=1); KIT = KITENIN.
The mark [2] stands for this setting: 1 μM compound, 16 hours, transfected Caco2 cells, luciferase activity relative to DMSO control (=1).

Where two headings read alike, the source gives them in different places.

Consider `Cc1ccccc1C(=O)NCC(=O)c1ccccc1` [Example 11, 2-methyl-N-(2-oxo-2-phenylethyl)benzamide], for which, in the experiment with KAI1 promoter (setting [2]), the fold induction at 1 µM came to 1.82. For the same compound, in experiment [1], the “In vivo relative invation” value stood at 1.036.
For `Cc1cccc(C(=O)N2CCC(Oc3ccccc3C(=O)NCC(=O)c3ccccc3)CC2)c1` [Example 163, 2-((1-(3-methylbenzoyl)piperidin-4-yl)oxy)-N-(2-oxo-2-phenylethyl)benzamide], the fold induction at 1 µM in the experiment with KAI1 promoter (setting [2]) worked out at 1.1. In addition, the “In vivo relative invation” value in experiment [1] was found to be 1.163.
Take `CC(C)(C)CC(=O)NCC(=O)c1ccccc1` [Example 19, 3,3-dimethyl-N-(2-oxo-2-phenylethyl) butanamide]: the fold induction at 1 µM in the experiment on KAI1 promoter (setting [2]) was determined as 0.98. Also, the “In vivo relative invation” value in experiment [1] worked out at 1.201.
`O=C(COc1ccccc1C(=O)NCC(=O)c1ccccc1)NCc1ccc2c(c1)OCO2` [Example 212]: the fold induction at 1 µM with KAI1 promoter (setting [2]) amounted to 1.01. Besides, the “In vivo relative invation” value in experiment [1] turned out to be 1.219.
For `O=C(CNC(=O)c1ccccc1OC1CCN(C(=O)c2cccs2)CC1)c1ccccc1` [Example 168, N-(2-oxo-2-phenylethyl)-2-((1-(thiophene-2-carbonyl)piperidin-4-yl)oxy)benzamide] the same measures were 1.05 and 1.199.
On the same counts, the results for `O=C(CNC(=O)c1cccc(CN2CCOCC2)c1)c1ccccc1` [Example 252, 3-(morpholinomethyl)-N-(2-oxo-2-phenylethyl)benzamide] are 1.56 and 1.165.
On the same counts, the results for `COc1cc(C)ccc1NC(=O)COc1ccccc1C(=O)NCC(=O)c1ccccc1` [Example 206, 2-(2-((2-methoxy-4-methylphenyl)amino)-2-oxoethoxy)-N-(2-oxo-2-phenylethyl)benzamide] are 1.05 and 1.11.
In the case of `O=C(CNC(=O)c1cccc(C(F)(F)F)c1)c1ccccc1` [Example 31, N-(2-oxo-2-phenylethyl)-3-(trifluoromethyl)benzamide], the fold induction at 1 µM with KAI1 promoter (setting [2]) came out at 1.18. Moreover, in experiment [1], the “In vivo relative invation” value came to 0.8211.
With `CCC(=O)NCC(=O)c1ccccc1` [Example 14, N-(2-oxo-2-phenylethyl)propionamide], the fold induction at 1 µM in the experiment on KAI1 promoter (setting [2]) is 1.02. For the same compound, the “In vivo relative invation” value in experiment [1] came out at 0.9106.
For `O=C(COc1ccccc1C(=O)NCC(=O)c1ccccc1)Nc1ccccc1Cl` [Example 224, 2-(2-((2-chlorophenyl)amino)-2-oxoethoxy)-N-(2-oxo-2-phenylethyl)benzamide] the same measures were 1.13 and 1.25.
Turning to `CC(C)Oc1cccc(NC(=O)COc2ccccc2C(=O)NCC(=O)c2ccccc2)c1` [Example 220, 2-(2-((3-isopropoxyphenyl)amino)-2-oxoethoxy)-N-(2-oxo-2-phenylethyl)benzamide], the fold induction at 1 µM in the experiment with KAI1 promoter (setting [2]) turned out to be 1.15. The “In vivo relative invation” value in experiment [1] is 0.9324.
In the case of `COc1cccc(C(=O)CNC(=O)c2cccc(CN(C)C3CCCCC3)c2)c1` [Example 280, 3-((cyclohexyl(methyl)amino)methyl)-N-(2-(3-methoxyphenyl)-2-oxoethyl)benzamide], the fold induction at 1 µM in the experiment with KAI1 promoter (setting [2]) was determined as 1.63. For the same compound, in experiment [1], the “In vivo relative invation” value worked out at 1.195.
With `O=C(CNC(=O)c1ccc(Cl)cc1)c1ccccc1` [Example 1, 4-chloro-N-(2-oxo-2-phenylethyl)benzamide], the fold induction at 1 µM in the experiment on KAI1 promoter turned out to be 1.7. In experiment [1], the “In vivo relative invation” value is on record as 0.9672.
Consider `O=C(CNC(=O)c1ccccc1Cl)c1ccc(N2CCOCC2)cc1` [Example 138, 2-chloro-N-(2-(4-morpholinophenyl)-2-oxoethyl)benzamide], for which, in the experiment with KAI1 promoter (setting [2]), the fold induction at 1 µM is 1.15. For the same compound, the “In vivo relative invation” value in experiment [1] was 1.258.
On the same counts, the results for `C=CCN(CC=C)Cc1cccc(C(=O)NCC(=O)c2cccc(OC)c2)c1` [Example 285, 3-((diallylamino)methyl)-N-(2-(3-methoxyphenyl)-2-oxoethyl)benzamide] are 1.47 and 1.247.
On the same counts, the results for `O=C(CNC(=O)c1ccccc1OC1CCN(C(=O)C2CC2)CC1)c1ccccc1` [Example 166, 2-((1-(cyclopropanecarbonyl)piperidin-4-yl)oxy)-N-(2-oxo-2-phenylethyl)benzamide] are 1.01 and 1.094.
Regarding `CC(Oc1ccccc1)C(=O)NCC(=O)c1ccccc1` (centres unmarked) [Example 2, N-(2-oxo-2-phenylethyl)-2-phenoxypropanamide], the fold induction at 1 µM in the experiment on KAI1 promoter turned out to be 1.14. Moreover, in experiment [1], the “In vivo relative invation” value was 0.8651.
In the case of `CN(C)c1ccc(C(=O)CNC(=O)c2cc(Cl)cc(Cl)c2)cc1` [Example 117, 3,5-dichloro-N-(2-(4-(dimethylamino)phenyl)-2-oxoethyl)benzamide], the fold induction at 1 µM with KAI1 promoter (setting [2]) turned out to be 1.32. Besides, the “In vivo relative invation” value in experiment [1] was determined as 1.076.
For `COCc1ccccc1C(=O)NCC(=O)c1ccc(Cl)cc1` [Example 59, N-(2-(4-chlorophenyl)-2-oxoethyl)-2-(methoxymethyl)benzamide] the same measures were 1.56 and 1.007.
On the same counts, the results for `COc1ccc(C(=O)NCC(=O)c2ccccc2)cc1` [Example 12, 4-methoxy-N-(2-oxo-2-phenylethyl)benzamide] are 1.75 and 1.357.
With `O=C(CNC(=O)c1cccs1)c1ccccc1` [Example 18, N-(2-oxo-2-phenylethyl)thiophene-2-carboxamide], in the experiment with KAI1 promoter (setting [2]), the fold induction at 1 µM was 2.18. Besides, the “In vivo relative invation” value in experiment [1] was determined as 1.1.
On the same counts, the results for `CCC(=O)NCC(=O)c1cccc(OC)c1` [Example 124, N-(2-(3-methoxyphenyl)-2-oxoethyl) propionamide] are 1.04 and 1.266.
On the same counts, the results for `O=C(CCc1ccccc1)NCC(=O)c1ccccc1` [Example 9, N-(2-oxo-2-phenylethyl)-3-phenylpropanamide] are 1.14 and 0.8419.
On the same counts, the results for `CCCCC(=O)NCC(=O)c1ccc(N(C)C)cc1` [Example 103, N-(2-(4-(dimethylamino)phenyl)-2-oxoethyl)pentanamide] are 1.7 and 1.172.
Turning to `C#CN(C)Cc1ccc(C(=O)NCC(=O)c2ccccc2)cc1` [Example 275, 4-((ethynyl(methyl)amino)methyl)-N-(2-oxo-2-phenylethyl)benzamide], in the experiment on KAI1 promoter (setting [2]), the fold induction at 1 µM is 6.85. Also, the “In vivo relative invation” value in experiment [1] was 1.146.
On the same counts, the results for `O=C(CNC(=O)c1ccc(F)c(F)c1)c1ccccc1` [Example 35, 3,4-difluoro-N-(2-oxo-2-phenylethyl)benzamide] are 1.28 and 0.8811.
With `C/C=C/C(=O)N1CCC(Oc2ccccc2C(=O)NCC(=O)c2ccccc2)CC1` [Example 158, (E)-2-((1-(but-2-enoyl)piperidin-4-yl)oxy)-N-(2-oxo-2-phenylethyl)benzamide], the fold induction at 1 µM in the experiment on KAI1 promoter (setting [2]) came out at 1. In addition, in experiment [1], the “In vivo relative invation” value is 1.171.
Turning to `COc1ccccc1N1CCN(Cc2cccc(C(=O)NCC(=O)c3ccccc3)c2)CC1` [Example 236, 3-((4-(2-methoxyphenyl)piperazin-1-yl)methyl)-N-(2-oxo-2-phenylethyl)benzamide], the fold induction at 1 µM in the experiment with KAI1 promoter (setting [2]) amounted to 1.3. The “In vivo relative invation” value in experiment [1] came to 1.112.

Source of the values: patent US20230150924A1, “NOVEL COMPOUND HAVING CANCER METASTASIS INHIBITORY ACTIVITY, PREPARATION METHOD THEREFOR, AND PHARMACEUTICAL COMPOSITION FOR INHIBITING CANCER METASTASIS AND INVASION OR TREATING COLORECTAL CANCER, COMPRISING COMPOUND” (CELLGENTEK CO., LTD., priority 2019, published 2023).
